Laboratory results reported in US8415371B2, “Methods and kits for treating cluster headache disorders” (priority 2008, dated 2013).
Entries after “also recorded” stand apart in the source; their conditions may differ.

What was measured:
[1] = test system: subjects diagnosed with chronic cluster headache disorder; assay: Treatment of chronic cluster headache disorder with bromolysergide, two adult subjects (Example 1); assay type: in vivo, human; conditions: once every five days
Experimental: The desired amount of bromolysergide (hydrochloride salt) was mixed with dextrose and placed into gelatin capsules for administration to subjects suffering from chronic cluster headache disorder.
Bromolysergide was administered to two adult subjects diagnosed with chronic cluster headache disorder during a cluster period. A dose of 2 mg of 2-bromolysergic acid dethylamide (30 μg/kg body weight) was administered orally to subject 1 three times, once every five days. A dose of 2.5 mg of 2-bromolysergic acid dethylamide (approximately 30 μg/kg body weight) was administered orally to subject 2 three times, once every five days.
Subjects were asked to rate their symptoms following administration of bromolysergide.

[2] = test system: treatment-refractory cluster headache patients; assay: Side effects, consciousness, thought disturbances and vital signs observed three to four hours after bromolysergide administration (Example 3); assay type: in vivo, human
Excerpt: (§1) Patients referred to the Pain Clinic at the Hannover Medical School were identified with cluster headache if they met the respective diagnostic criteria of the international classification of headache disorders (Headache Classification Committee of the International Headache Society (2004) The International Classification of Headache Disorders, 2nd edn. Cephalalgia 24 Suppl 1:1-160). In addition, all patients were non-responders to verapamil and other prophylactic medications (i.e., refractory to the prophylactic medications listed in Table 1 for each patient). In accordance with German national and local ethics committee rules, all patients signed an informed consent, in which the patients declared their agreement to participate in this project on the compassionate use of bromolysergide for cluster headache. Patients kept a standardized daily diary of cluster headache symptoms starting at least two weeks prior to bromolysergide administration. Bromolysergide (hydrochloride salt) was manufactured by THCpharm GmbH (Frankfurt am Main, Germany). A purity of >99.2% was identified by HPLC and other analytical tests. Bromolysergide hydrochloride 30 μg per Kg body weight was dissolved into distilled water and then given once every 5 days for a total of 3 doses per os. Alterations in consciousness, thought disturbances, and vital signs (blood pressure, heart rate) were measured during a three to four hour observational period following administration. Patients were asked to continue completing daily headache diaries for the next months or until they experience 3 days of attacks of a starting new cluster series.

[3] = test system: treatment-refractory cluster headache patients; assay: Compassionate use of bromolysergide in treatment-refractory cluster headache patients, daily headache diary (Example 3); assay type: in vivo, human; conditions: for continuous period of attack quiescence: indicates transition from chronic to episodic form
Excerpt: as §1

[4] = daily prophylactic administration over time; rare; cited from earlier work
[5] = cited from earlier work
[6] = subject 1, 2 mg (30 μg/kg) orally three times, for ten weeks
[7] = subject 2, 2.5 mg orally three times

With CCN(CC)C(=O)[C@@H]1C=C2c3cccc4[nH]c(Br)c(c34)C[C@H]2N(C)C1 [bromolysergide, 2-bromolysergic acid diethylamide] as the compound, how does the “rating of results (Clinical Global Impressions Scale)” value ([1]; subject 1, chronic cluster headache, 2 mg (30 μg/kg) orally three times) read?
Its value is “minimally improved”.

What about the “duration of improvement before reverting to pre-treatment form” value ([1]; subject 1, 2 mg (30 μg/kg) orally three times) of the same compound?
Its value is “ten”.

And the reduction in pain [1, 6]?
The reduction in pain was 30%.

What about the “reduction of attack frequency” value [1, 6] of the same compound?
Its value is 30%.

What about the “rating of results (Clinical Global Impressions Scale)” value ([1]; subject 2, chronic cluster headache for more than 6 years, 2.5 mg (approximately 30 μg/kg) orally three times) of the same compound?
The value was “marked/very much improved”.

What about the “International Headache Society criteria for chronic cluster headache disorder after treatment” value [1, 7] of the same compound?
Its value is “no longer met criteria”.

And the remission of symptoms [1, 7]?
The remission of symptoms was “complete or nearly complete remission of symptoms”.

And the “time free of attacks” value ([1]; subject 2, 2.5 mg orally three times, at last follow-up)?
Its value is “more than 3 months”.

What about the “duration of side effect” value ([2]; each of the five subjects, 30 μg/kg per os) of the same compound?
Its value is “about 2 hours”.

And the “changes to heart rate and blood pressure” value ([2]; five patients, during bromolysergide treatment)?
Its value is “No changes”.

What about the “duration of mild subjective effects” value ([2]; five patients, 30 μg/kg per os) of the same compound?
The value was “one to two”.

And the “hallucinogenic or psychotic effects” value ([2]; five patients, 30 μg/kg per os)?
The value was “No visual hallucinations or distortions occurred nor was there any evidence of delusional thinking or overt psychosis; also recorded: non-hallucinogenic”.

And the other side effects ([2]; five patients, apart from very mild alterations of subjective state and mild to no sympathetic reactions)?
Its other side effects is “no other side effects were observed”.

What about the subjective feelings recorded ([2]; most of the patients, 30 μg/kg per os) of the same compound?
The subjective feelings recorded was ““flabby” or “light drunk” feelings”.

What about the subjective effects noted ([2]; patient S2, 30 μg/kg per os) of the same compound?
Its subjective effects noted is ““funny” feeling, tense muscles, and sweating of their hands”.

What about the Vital signs ([2]; subject S1, 2.5 mg ×3) of the same compound?
The Vital signs was “unchanged”.

And the Side effects ([2]; subject S1, 2.5 mg ×3, cell wraps into r25: “flabby feeling”)?
Its Side effects is ““flabby”.

What about the Vital signs ([2]; subject S2, 2.0 mg ×3) of the same compound?
Its Vital signs is “unchanged”.

And the Side effects ([2]; subject S2, 2.0 mg ×3, cell wraps into r25: “funny feeling”)?
Its Side effects is ““funny”.

And the Side effects ([2]; subject S3, 3.1 mg ×3)?
Its Side effects is ““slightly”.

What about the Vital signs ([2]; subject S3, 3.1 mg ×3) of the same compound?
The Vital signs was “unchanged”.

What about the Side effects ([2]; subject S4, 3.1 mg ×3) of the same compound?
Its Side effects is ““slightly”.

And the Vital signs ([2]; subject S4, 3.1 mg ×3)?
The Vital signs was “unchanged”.

What about the Side effects ([2]; subject S5, 2.2 mg ×3) of the same compound?
The Side effects was ““slightly”.

What about the Vital signs ([2]; subject S5, 2.2 mg ×3) of the same compound?
Its Vital signs is “unchanged”.

What about the “overall effect on cluster headache cycle, frequency and intensity of attacks” value ([3]; five treatment-refractory patients, three single doses of 30 μg/kg within 10 days, FIG. 1) of the same compound?
Its value is “can either break a cluster headache cycle or considerably improve the frequency and intensity of attacks; also recorded: quite effective at breaking cluster headache cycle; also recorded: can break a cluster headache cycle, convert a chronic cluster headache disorder into an episodic cluster headache disorder, and extend the remission period”.

And the attack frequency ([3]; patient S1, chronic form, 30 μg/kg per os ×3)?
The attack frequency was “did not show this pronounced attack reduction”.

And the “decrease of attack intensity” value ([3]; patient S1, chronic form, 30 μg/kg per os ×3, within the first 4 months, continued to drink alcohol)?
The value was “about 30%”.

What about the “outcome of cluster period” value ([3]; patient S2, episodic form, 30 μg/kg per os once every 5 days, 3 doses) of the same compound?
Its value is “termination of their cluster period”.

And the remission period ([3]; patient S2, episodic form, 30 μg/kg per os ×3, at last follow-up and continuing)?
Its remission period is “six”.

And the attack frequency ([3]; patient S3, chronic form, 30 μg/kg per os ×3)?
Its attack frequency is “pronounced reduction of attack frequency”.

What about the “pain intensity during remaining occasional attacks” value ([3]; patient S3, 30 μg/kg per os ×3) of the same compound?
Its value is “such reductions of pain intensity during their remaining occasional attacks that they no longer administered an acute intervention”.

And the “continuous period of attack quiescence” value ([3]; patient S3, 30 μg/kg per os ×3)?
Its value is “greater than 4 week”.

What about the attack frequency ([3]; patient S4, chronic form, 30 μg/kg per os ×3) of the same compound?
The attack frequency was “profound reduction of attack frequency”.

And the “continuous break of attacks” value ([3]; patient S4, 30 μg/kg per os ×3)?
Its value is “did not show a continuous 4-week break of attacks”.

And the “pain intensity during remaining occasional attacks” value ([3]; patient S4, 30 μg/kg per os ×3)?
Its value is “such reductions of pain intensity during their remaining occasional attacks that they no longer administered an acute intervention”.

And the attack frequency ([3]; patient S5, chronic form, 30 μg/kg per os ×3)?
The attack frequency was “pronounced reduction of attack frequency”.

What about the “continuous period of attack quiescence” value ([3]; patient S5, 30 μg/kg per os ×3) of the same compound?
Its value is “greater than 4 week”.

Which “serious medical complication in the longstanding user” value [4] does the source give for CC[C@@H](CO)NC(=O)[C@@H]1C=C2c3cccc4c3c(cn4C)C[C@H]2N(C)C1 [methysergide] here?
The value was “fibrotic reactions (retroperitoneal, pulmonary, pleural, and cardiac)”.

What about the “dose estimated to be equivalent to 25 micgrograms LSD” value ([5]; Abrahamson et al., J. Asthma Res. 3:81 (1965)) of the same compound?
Its value is “ca. 4 mg”.

What about the hallucinogenic effect ([5]; supra-therapeutic doses) of the same compound?
The hallucinogenic effect was “hallucinogenic”.
